Measured values reported in patent US9662328B2, “Targeting human thymidylate kinase induces DNA repair toxicity in malignant tumor cells” (NATIONAL YANG-MING UNIVERSITY, priority 2010, dated 2017).

What follows are molecules tested against T1, hTMPK (Homo sapiens, UniProt P23919) (assay: In vitro inhibitory activity against human TMPK at 2 μM). Conditions: test compounds at 2 μM concentration.
T1 sequence (P23919 1-212): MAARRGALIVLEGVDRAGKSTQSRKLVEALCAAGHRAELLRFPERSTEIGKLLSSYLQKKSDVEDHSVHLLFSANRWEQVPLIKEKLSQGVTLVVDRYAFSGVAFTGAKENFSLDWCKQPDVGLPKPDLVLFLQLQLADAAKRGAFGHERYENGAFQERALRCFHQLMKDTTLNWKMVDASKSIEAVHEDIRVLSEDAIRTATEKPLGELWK
Type: biochemical
Protocol: The TMPK reaction was started by adding purified hTMPK in 50 μl of TMPK assay buffer (100 mM Tris-HCl, pH 7.5, 100 mM KCl, 10 mM MgCl2, 50 μM ATP and 100 μM dTMP) in 96 wells plate at 25° C. for 10 min and terminated by adding 200 μl of DTNB (100 μM), followed by transferring 10 μl of reaction solution to a white 96-wellplate containing 90 μl of luciferase assay buffer (50 mM Glycine, 0.5 mM EDTA and 5 mM EDTA, pH 7.0, 0.1 μg of luciferase, 50 μM luciferin and 0.1% BSA). The luminescence was measured with a luminescence counter (Packard).
All reactions were performed in 96-well plates in an assay volume of 100 μl. The activity of hTMPK was measured at 25° C. using a modified NADH coupled colorimetric assay as described (Agarwal et al., 1978; Miyata et al., 2003; Ostermann et al., 2003), in which purified hTMPK was added to the buffer containing 100 mM Tris-HCl, pH 7.5, 100 mM KCl, 10 mM MgCl2, 0.5 mM phosphoenol pyruvate, 0.25 mM NADH, 5 units of lactate dehydrogenase, 4 units of pyruvate kinase, 1 mM ATP, and 200 μM dTMP. The change of NADH was measured by reading the absorbance at 340 nm. One unit of TMPK activity is defined as the conversion of […] of TMP to TDP per minute.
The in vitro inhibitory activities of test compounds (at 2 μM concentration) against human TMPK are shown in Table 3 and compared with that of YMU1 and YMU2.

| Structure (SMILES) | inhibition at 2 µM [%] |
| --- | --- |
| CC(C)(C)OC(=O)N1CCN(C(=O)Cn2sc3ncccc3c2=O)CC1 [I-a-1, Tert-butyl 4-(2-(3-oxoisothiazolo[5,4-b]pyridin-2(3H)-yl)acetyl)piperazine-1-carboxylate] | 77 ± 4 |
| O=C(Cn1sc2cc(Br)ccc2c1=O)N1CCNCC1 [I-f-2, 6-Bromo-2-(2-oxo-2-(piperazin-1-yl)ethyl)benzo[d]isothiazol-3(2H)-one] | 38 ± 14 |
| COc1ccc2c(=O)n(CC(=O)N3CCN(C(=O)OC(C)(C)C)CC3)sc2c1 [I-d-15, Tert-butyl 4-(2-(6-methoxy-3-oxobenzo[d]isothiazol-2(3H)-yl)acetyl)piperazine-1-carboxylate] | 51 ± 9 |
| CCCCNC(=O)NCC(=O)N1CCN(C(=O)Cn2sc3ccccc3c2=O)CC1 [I-e-7, Butyl-3-(2-oxo-2-(4-(2-(3-oxobenzo[d]isothiazol-2(3H)-yl)acetyl)piperazin-1-yl)ethyl)urea] | 50 ± 5 |
| Cc1cc(N)nc2sn(CC(=O)N3CCN(C(=O)Oc4ccc([N+](=O)[O-])cc4)CC3)c(=O)c12 [I-a-4, 4-Nitrophenyl 4-[2-(6-amino-4-methyl-3-oxoisothiazolo[5,4-b]pyridin-2(3H)-yl)acetyl]piperazine-1-carboxylate] | 10 ± 7 |
| CC(C)(C)OC(=O)N1CCN(C(=O)Cn2sc3cc(O[Si](C)(C)C(C)(C)C)ccc3c2=O)CC1 [I-d-17, Tert-butyl 4-(2-(6-((tert-butyldimethylsilyl)oxy)-3-oxobenzo[d]isothiazol-2(3H)-yl)-acetyl)piperazine-1-carboxylate] | 80 ± 4 |
| Cc1cc(C)c2c(=O)n(CC(=O)N3CCN(C(=O)CI)CC3)sc2n1 [I-b-3, 4,6-Dimethyl-2-[2-(4-(2-iodoacetyl)piperazin-1-yl)-2-oxoethyl]-isothiazolo[5,4-b]pyridin-3(2H)-one] | 29 ± 3 |
| CC(C)(C)OC(=O)N1CCN(C(=O)Cn2sc3cc(Br)ccc3c2=O)CC1 [I-d-10, Tert-butyl 4-(2-(6-bromo-3-oxobenzo[d]isothiazol-2(3H)-yl)acetyl)piperazine-1-carboxylate] | 56 |
| CC(C)(C)OC(=O)N1CCN(C(=O)Cn2sc3c(F)cccc3c2=O)CC1 [I-d-8, Tert-butyl 4-(2-(7-fluoro-3-oxobenzo[d]isothiazol-2(3H)-yl)acetyl)piperazine-1-carboxylate] | 25 ± 3 |
| O=C(Cn1sc2ccccc2c1=O)N1CCN(C(=O)OCc2ccccc2)CC1 [I-d-3, Benzyl 4-(2-(3-oxobenzo[d]isothiazol-2(3H)-yl)acetyl)piperazine-1-carboxylate] | 54 ± 1 |
| Cc1cc(N)nc2sn(CC(=O)N3CCNCC3)c(=O)c12 [I-c-3, 6-Amino-4-methyl-2-[2-oxo-2-(piperazin-1-yl)ethyl]isothiazolo[5,4-b]pyridin-3(2H)-one] | 6 ± 5 |
| O=C(Cn1sc2ccccc2c1=O)N1CCNCC1 [I-f-1, 2-(2-Oxo-2-(piperazin-1-yl)ethyl)benzo[d]isothiazol-3(2H)-one] | 34 ± 2 |
| O=C(CN=C=S)N1CCN(C(=O)Cn2sc3ccccc3c2=O)CC1 [I-e-4, 2-(2-(4-(2-Isothiocyanatoacetyl)piperazin-1-yl)-2-oxoethyl)benzo[d]isothiazol-3(2H)-one] | 63 ± 10 |
| O=C(Cn1sc2ncccc2c1=O)N1CCN(C(=O)Oc2ccc([N+](=O)[O-])cc2)CC1 [I-a-2, 4-Nitrophenyl 4-(2-(3-oxoisothiazolo[5,4-b]pyridin-2(3H)-yl)acetyl)piperazine-1-carboxylate] | 80 ± 10 |
| O=C(CI)N1CCN(C(=O)Cn2sc3ccccc3c2=O)CC1 [I-e-1, 2-[2-(4-(2-Iodoacetyl)piperazin-1-yl)-2-oxoethyl]benzo[d]isothiazol-3(2H)-one] | 31 ± 5 |
| O=C(Cn1sc2ncccc2c1=O)N1CCNCC1 [I-c-1, 2-(2-Oxo-2-(piperazin-1-yl)ethyl)isothiazolo[5,4-b]pyridin-3(2H)-one] | 75 ± 11 |
| CC(C)(C)OC(=O)N1CCN(C(=O)Cn2sc3cc(N=[N+]=[N-])ccc3c2=O)CC1 [I-d-14, tert-butyl 4-(2-(6-azido-3-oxobenzo[d]isothiazol-2(3H)-yl)acetyl)piperazine-1-carboxylate] | 66 ± 5 |
| Cc1cc(C)c2c(=O)n(CC(=O)N3CCN(C(=O)CNC(=O)Nc4ccccc4)CC3)sc2n1 [I-b-2, 1-(2-(4-(2-(4,6-Dimethyl-3-oxoisothiazolo[5,4-b]pyridin-2(3H)-yl)acetyl)piperazin-1-yl)-2-oxoethyl)-3-phenylurea] | 32 ± 2 |
| Cc1cc(N)nc2sn(CC(=O)N3CCN(C(=O)OC(C)(C)C)CC3)c(=O)c12 [I-a-3, Tert-butyl 4-[(6-amino-4-methyl-3-oxoisothiazolo[5,4-b]pyridin-2(3H)-2-yl)acetyl]piperazine-1-carboxylate] | 16 ± 5 |
| O=C(Cn1sc2cc(Br)ccc2c1=O)N1CCN(C(=O)Oc2ccc([N+](=O)[O-])cc2)CC1 [I-d-11, 4-Nitrophenyl 4-(2-(6-bromo-3-oxobenzo[d]isothiazol-2(3H)-yl)acetyl)piperazine-1-carboxylate] | 86 ± 6 |
| CC(C)(C)OC(=O)N1CCN(C(=O)Cn2sc3cccc(F)c3c2=O)CC1 [I-d-5, Tert-butyl 4-(2-(4-fluoro-3-oxobenzo[d]isothiazol-2(3H)-yl)acetyl)piperazine-1-carboxylate] | 56 ± 4 |
| Cc1cc(C)c2c(=O)n(CC(=O)N3CCN(C(=O)OC(C)(C)C)CC3)sc2n1 [YMU2, reference compound] | 46 ± 2 |
| COc1ccc(NC(=O)NCC(=O)N2CCN(C(=O)Cn3sc4ccccc4c3=O)CC2)cc1 [I-e-6, 1-(4-Methoxyphenyl)-3-(2-oxo-2-(4-(2-(3-oxobenzo[d]isothiazol-2(3H)-yl)acetyl)piperazin-1-yl)ethyl)urea] | 55 ± 7 |
| CC(C)(C)OC(=O)N1CCN(C(=O)Cn2sc3cc(O)ccc3c2=O)CC1 [I-d-16, Tert-butyl 4-(2-(6-hydroxy-3-oxobenzo[d]isothiazol-2(3H)-yl)acetyl)piperazine-1-carboxylate] | 22 ± 12 |
| CCOC(=O)N1CCN(C(=O)Cn2sc3ccccc3c2=O)CC1 [I-d-1, Ethyl 4-(2-(3-oxobenzo[d]isothiazol-2(3H)-yl)acetyl)piperazine-1-carboxylate] | 79 ± 5 |
| CC(C)(C)OC(=O)N1CCN(C(=O)Cn2sc3ccccc3c2=O)CC1 [I-d-2, Tert-butyl 4-(2-(3-oxobenzo[d]isothiazol-2(3H)-yl)acetyl)piperazine-1-carboxylate] | 100 ± 9 |
| CCCCCCCCc1cn(-c2ccc3c(=O)n(CC(=O)N4CCN(C(=O)OC(C)(C)C)CC4)sc3c2)nn1 [I-d-18, Tert-butyl 4-(2-(6-(4-octyl-1H-1,2,3-triazol-1-yl)-3-oxobenzo[d]isothiazol-2(3H)-yl)acetyl)piperazine-1-carboxylate] | 78 ± 7 |
| CC(C)(C)OC(=O)N1CCN(C(=O)Cn2sc3cc(N)ccc3c2=O)CC1 [I-d-13, Tert-butyl 4-(2-(6-amino-3-oxobenzo[d]isothiazol-2(3H)-yl)acetyl)piperazine-1-carboxylate] | 39 ± 14 |
| CC(C)(C)OC(=O)N1CCN(C(=O)Cn2sc3cc(Cl)ccc3c2=O)CC1 [I-d-9, Tert-butyl 4-(2-(6-chloro-3-oxobenzo[d]isothiazol-2(3H)-yl)acetyl)piperazine-1-carboxylate] | 55 ± 7 |
